The source of these data is patent publication US20030089472A1, “Laccase activity enhancers for pulp bleaching” (priority 2001, published 2003).

In the experiment the test system is laccase (NS51003, Novozymes A/S, Denmark). Put plainly: Delignification of a softwood Kraft pulp using a laccase-mediator system (change in Kappa number, TAPPI T236 cm-85). In kind it is biochemical. As to conditions: for Kappa # (Mediator): pH 5.5. The procedure:
Delignification of a Softwood Kraft Pulp Using a Laccase-Mediator System in the Presence of a Mediator
In the following example, a softwood Kraft pulp was delignified using a laccase-mediator system. The Kraft process is well known to those skilled in the art and is described, for example, by Swen A. Rydholm in “Pulping Process”, Interscience Publishers, New York, N.Y. (1965), p. 576.
A softwood Kraft pulp, Kappa number 31.0, was treated with a laccase (NS51003, Novozymes A/S, Denmark) under the following conditions:
The dried pulp was added to 80 ml of 50 mM phosphate, pH 5.5, and disintegrated in a blender. The pulp was then transferred to a 500 ml conical flask, and the blender was washed with 20 ml of the same buffer. The washed buffer and the pulp were combined. The mediator was added at 1-4% (w/w, based on the dry pulp) (Dosage) followed by the addition of the laccase. The pH of the pulp mixture was adjusted to 5.5 if needed. The flask was covered with an aluminum foil with holes punched through and incubated at 50° C. for 16 hrs on a rotary shaker at 200 rpm.
After the enzymatic treatment, the pulp mixture was filtered through a Buchner funnel and the pulp was washed with water. The pulp from the control experiment was treated at the same pH and temperature as described above in the absence of mediators.
The washed pulp was then treated with an alkaline solution under the following conditions:
The filtered pulp was repulped in the alkaline solution and incubated at 70° C. for 3 hrs. The pH of the pulp mixture should be between 11.7-12.00 during the entire treatment. After the treatment, the pulp mixture was filtered through a Buchner funnel, and the pulp was washed with water extensively, and then dried in a hood overnight.
The delignification of the pulp was measured as the change in Kappa number according to TAPPI method T236 cm−85. Briefly, a known mass of paper pulp (containing lignin) was reacted with an excess of potassium permanganate in acid solution for a specified period of time to oxidize the lignin. After the reaction, the residual permanganate was determined by titration. The Kappa number was defined as the volume (ml) of 0.1N potassium permanganate consumed by 1 g of moisture-free pulp in 0.5N sulfuric acid after a ten minute reaction time at 25° C. under conditions such that one-half of the permanganate remained unreacted. A linear relationship with the lignin content of the pulp and the measurement of the Kappa number had already been done on samples as low as 300 mg of pulp.

`Oc1ccccc1` [Phenol]: the “Δ Kappa #” value was −1.1 and the “Kappa # (Mediator)” value is reported as 25.0.
As for `C(=NCc1ccccc1)c1ccccc1` [N-Benzylidene-benzylamine], the “Δ Kappa #” value is −0.3 and the “Kappa # (Mediator)” value worked out at 28.3.
In the same order, the values of `CN(C)C(=S)[S-].O.[Na+]` [Sodium dimethyldithio carbonate hydrate] are −0.7 and 28.6.
In the same order, the values of `Cc1ccc2nc(-c3ccc(N=NNc4ccc(-c5nc6ccc(C)c(S(=O)(=O)[O-])c6s5)cc4)cc3)sc2c1S(=O)(=O)[O-].[Na+].[Na+]` [Thiazol Yellow G] are −3.0 and 21.9.
